Test results taken from ChEMBL document CHEMBL3885861, “Open TG-GATES”.

Organism: Rattus norvegicus
Test: Open TG-GATES - Regimen: Daily Repeat
Format: toxicity, organism-based, Sprague-Dawley
Set-up: regimen Daily Repeat, gender Male, age 6 weeks
Conditions: in vivo, po, route gavage; for gamma-GTP / A/G / ALP / ALT / AST / BUN / CRE / Ca / Cl / DBIL / GLC / IP / K / LDH / Na / PL / RALB / TBIL / TC / TG / TP: tissue Plasma; for APTT / Bas / Eos / Fbg / Hb / Ht / Lym / MCH / MCHC / MCV / Mono / Neu / PT / Plat / RBC / Ret / WBC: tissue Blood; for KIDNEY_L / KIDNEY_R / KIDNEY_TOTAL: tissue Kidney; for LIVER: tissue Liver
[1] = 3 mg/kg, […], dose level Low, time 28 day
[2] = 10 mg/kg, 72 h, dose level Middle, time 3 day
[3] = 10 mg/kg, […], dose level Middle, time 7 day
[4] = 10 mg/kg, […], dose level Middle, time 14 day
[5] = 10 mg/kg, […], dose level Middle, time 28 day
[6] = 30 mg/kg, 72 h, dose level High, time 3 day
[7] = 30 mg/kg, […], dose level High, time 7 day
[8] = 30 mg/kg, […], dose level High, time 14 day

CCN(CC)N=O [N-NITROSODIETHYLAMINE]
gamma-GTP (3 mg/kg, […], dose level Low, time 14 day): 1.2 IU/L
A/G [1]: 1.3
ALP [1]: 685.6 IU/L
ALT [1]: 37.6 IU/L
AST [1]: 69.4 IU/L
BUN [1]: 15.6 mg/dL
CRE [1]: 0.5 mg/dL
Ca [1]: 10.2 mg/dL
Cl [1]: 103.2 meq/L
DBIL [1]: 0.1 mg/dL
GLC [1]: 203.8 mg/dL
IP [1]: 7 mg/dL
K [1]: 3.7 meq/L
LDH [1]: 198.4 IU/L
Na [1]: 141.6 meq/L
PL [1]: 142.2 mg/dL
RALB [1]: 3.4 g/dL
TBIL [1]: 0.2 mg/dL
TC [1]: 72 mg/dL
TG [1]: 109.8 mg/dL
TP [1]: 6 g/dL
gamma-GTP [1]: 1.6 IU/L
TERMINAL_BW [2]: 232.4 g
APTT [2]: 17.9 s
Bas [2]: 0.4%
Eos [2]: 1%
Fbg [2]: 224.4 mg/dL
Hb [2]: 13.7 g/dL
Ht [2]: 39.6%
Lym [2]: 80.6%
MCH [2]: 21.4 pg
MCHC [2]: 34.5%
MCV [2]: 62 fL
Mono [2]: 1.8%
Neu [2]: 15.6%
PT [2]: 11.9 s
Plat [2]: 144.5 x10_4/uL
RBC [2]: 639 x10_4/ul
Ret [2]: 5.5%
WBC [2]: 81.6 x10_2/uL
KIDNEY_L [2]: 1 g
KIDNEY_R [2]: 1 g
KIDNEY_TOTAL [2]: 2 g
LIVER [2]: 9.9 g
A/G [2]: 1.5
ALP [2]: 927.8 IU/L
ALT [2]: 33.6 IU/L
AST [2]: 69 IU/L
BUN [2]: 14.4 mg/dL
CRE [2]: 0.4 mg/dL
Ca [2]: 10.6 mg/dL
Cl [2]: 103.4 meq/L
DBIL [2]: 0.09 mg/dL
GLC [2]: 186.6 mg/dL
IP [2]: 7.5 mg/dL
K [2]: 4.1 meq/L
LDH [2]: 186.8 IU/L
Na [2]: 140.8 meq/L
PL [2]: 126.4 mg/dL
RALB [2]: 3.3 g/dL
TBIL [2]: 0.1 mg/dL
TC [2]: 69 mg/dL
TG [2]: 75 mg/dL
TP [2]: 5.5 g/dL
gamma-GTP [2]: 1.4 IU/L
TERMINAL_BW [3]: 255.8 g
TERMINAL_BW [4]: 288.9 g
TERMINAL_BW [5]: 349 g
APTT [3]: 19.3 s
Bas [3]: 0.8%
Eos [3]: 1%
Fbg [3]: 210.6 mg/dL
Hb [3]: 14.7 g/dL
Ht [3]: 41.7%
Lym [3]: 80%
MCH [3]: 21.2 pg
MCHC [3]: 35.2%
MCV [3]: 60.3 fL
Mono [3]: 2.4%
Neu [3]: 15.8%
PT [3]: 12.3 s
Plat [3]: 139.2 x10_4/uL
RBC [3]: 693.4 x10_4/ul
Ret [3]: 3.4%
WBC [3]: 94.2 x10_2/uL
APTT [4]: 18.7 s
Bas [4]: 1%
Eos [4]: 1.2%
Fbg [4]: 212 mg/dL
Hb [4]: 16 g/dL
Ht [4]: 44.8%
Lym [4]: 75.2%
MCH [4]: 21.4 pg
MCHC [4]: 35.6%
MCV [4]: 60.2 fL
Mono [4]: 2.6%
Neu [4]: 20%
PT [4]: 12.8 s
Plat [4]: 135.1 x10_4/uL
RBC [4]: 745.2 x10_4/ul
Ret [4]: 3%
WBC [4]: 125 x10_2/uL
APTT [5]: 17.1 s
Bas [5]: 0.6%
Eos [5]: 0.8%
Fbg [5]: 197.8 mg/dL
Hb [5]: 16.8 g/dL
Ht [5]: 45.5%
Lym [5]: 77.4%
MCH [5]: 20.6 pg
MCHC [5]: 36.9%
MCV [5]: 55.9 fL
Mono [5]: 2.4%
Neu [5]: 18%
PT [5]: 12.7 s
Plat [5]: 115.5 x10_4/uL
RBC [5]: 815 x10_4/ul
Ret [5]: 1.9%
WBC [5]: 126.6 x10_2/uL
KIDNEY_L [3]: 1 g
KIDNEY_R [3]: 1 g
KIDNEY_TOTAL [3]: 2.1 g
KIDNEY_L [4]: 1.1 g
KIDNEY_R [4]: 1.1 g
KIDNEY_TOTAL [4]: 2.3 g
KIDNEY_L [5]: 1.2 g
KIDNEY_R [5]: 1.2 g
KIDNEY_TOTAL [5]: 2.3 g
LIVER [3]: 10.2 g
LIVER [4]: 9.6 g
LIVER [5]: 9.3 g
A/G [3]: 1.7
ALP [3]: 860.8 IU/L
ALT [3]: 36.2 IU/L
AST [3]: 78 IU/L
BUN [3]: 13.6 mg/dL
CRE [3]: 0.4 mg/dL
Ca [3]: 10.4 mg/dL
Cl [3]: 104.2 meq/L
DBIL [3]: 0.1 mg/dL
GLC [3]: 190.2 mg/dL
IP [3]: 7.4 mg/dL
K [3]: 4 meq/L
LDH [3]: 236.4 IU/L
Na [3]: 141.2 meq/L
PL [3]: 131 mg/dL
RALB [3]: 3.3 g/dL
TBIL [3]: 0.2 mg/dL
TC [3]: 71.4 mg/dL
TG [3]: 59.2 mg/dL
TP [3]: 5.3 g/dL
gamma-GTP [3]: 1.2 IU/L
A/G [4]: 1.6
ALP [4]: 1173 IU/L
ALT [4]: 52.8 IU/L
AST [4]: 91.4 IU/L
BUN [4]: 15 mg/dL
CRE [4]: 0.5 mg/dL
Ca [4]: 10.5 mg/dL
Cl [4]: 101.6 meq/L
DBIL [4]: 0.1 mg/dL
GLC [4]: 180 mg/dL
IP [4]: 7 mg/dL
K [4]: 3.8 meq/L
LDH [4]: 259 IU/L
Na [4]: 140.2 meq/L
PL [4]: 140.2 mg/dL
RALB [4]: 3.4 g/dL
TBIL [4]: 0.2 mg/dL
TC [4]: 70.4 mg/dL
TG [4]: 67.6 mg/dL
TP [4]: 5.5 g/dL
gamma-GTP [4]: 2.2 IU/L
A/G [5]: 1.7
ALP [5]: 1261.4 IU/L
ALT [5]: 69 IU/L
AST [5]: 110.4 IU/L
BUN [5]: 15 mg/dL
CRE [5]: 0.5 mg/dL
Ca [5]: 9.9 mg/dL
Cl [5]: 103.6 meq/L
DBIL [5]: 0.1 mg/dL
GLC [5]: 165.8 mg/dL
IP [5]: 5.9 mg/dL
K [5]: 3.5 meq/L
LDH [5]: 242 IU/L
Na [5]: 140.6 meq/L
PL [5]: 146.2 mg/dL
RALB [5]: 3.3 g/dL
TBIL [5]: 0.2 mg/dL
TC [5]: 70.8 mg/dL
TG [5]: 79.2 mg/dL
TP [5]: 5.3 g/dL
gamma-GTP [5]: 3.2 IU/L
TERMINAL_BW [6]: 209.6 g
APTT [6]: 17.1 s
Bas [6]: 0.6%
Eos [6]: 1.4%
Fbg [6]: 211.6 mg/dL
Hb [6]: 15.6 g/dL
Ht [6]: 44.7%
Lym [6]: 81.2%
MCH [6]: 21.3 pg
MCHC [6]: 34.8%
MCV [6]: 61.1 fL
Mono [6]: 3.4%
Neu [6]: 12.6%
PT [6]: 14.2 s
Plat [6]: 134.9 x10_4/uL
RBC [6]: 732.4 x10_4/ul
Ret [6]: 4%
WBC [6]: 84.6 x10_2/uL
KIDNEY_L [6]: 1 g
KIDNEY_R [6]: 0.9 g
KIDNEY_TOTAL [6]: 1.9 g
LIVER [6]: 7.6 g
A/G [6]: 1.8
ALP [6]: 979.2 IU/L
ALT [6]: 64.4 IU/L
AST [6]: 196.8 IU/L
BUN [6]: 12.4 mg/dL
CRE [6]: 0.4 mg/dL
Ca [6]: 10.4 mg/dL
Cl [6]: 103.2 meq/L
DBIL [6]: 0.1 mg/dL
GLC [6]: 174.6 mg/dL
IP [6]: 7.5 mg/dL
K [6]: 4 meq/L
LDH [6]: 316.8 IU/L
Na [6]: 140.4 meq/L
PL [6]: 135.8 mg/dL
RALB [6]: 3.4 g/dL
TBIL [6]: 0.2 mg/dL
TC [6]: 80.6 mg/dL
TG [6]: 59.4 mg/dL
TP [6]: 5.2 g/dL
gamma-GTP [6]: 1.6 IU/L
TERMINAL_BW [7]: 200.4 g
TERMINAL_BW [8]: 195.1 g
APTT [7]: 21.4 s
Bas [7]: 1%
Eos [7]: 1%
Fbg [7]: 153.6 mg/dL
Hb [7]: 17.4 g/dL
Ht [7]: 49%
Lym [7]: 76%
MCH [7]: 21.1 pg
MCHC [7]: 35.6%
MCV [7]: 59.2 fL
Mono [7]: 4.4%
Neu [7]: 17.4%
PT [7]: 19.5 s
Plat [7]: 126.6 x10_4/uL
RBC [7]: 827 x10_4/ul
Ret [7]: 1.6%
WBC [7]: 117.4 x10_2/uL
APTT [8]: 87.2 s
Bas [8]: 1%
Eos [8]: 0%
Fbg [8]: 66 mg/dL
Hb [8]: 16.7 g/dL
Ht [8]: 48.8%
Lym [8]: 26%
MCH [8]: 20.7 pg
MCHC [8]: 34.2%
MCV [8]: 60.5 fL
Mono [8]: 7%
Neu [8]: 65%
PT [8]: 63.4 s
Plat [8]: 112.1 x10_4/uL
RBC [8]: 807 x10_4/ul
Ret [8]: 3.6%
WBC [8]: 108.1 x10_2/uL
KIDNEY_L [7]: 0.9 g
KIDNEY_R [7]: 0.9 g
KIDNEY_TOTAL [7]: 1.8 g
KIDNEY_L [8]: 1.2 g
KIDNEY_R [8]: 1.2 g
KIDNEY_TOTAL [8]: 2.4 g
LIVER [7]: 4.6 g
LIVER [8]: 2.7 g
A/G [7]: 2
ALP [7]: 1514 IU/L
ALT [7]: 160.2 IU/L
AST [7]: 315.6 IU/L
BUN [7]: 12.6 mg/dL
CRE [7]: 0.4 mg/dL
Ca [7]: 9.6 mg/dL
Cl [7]: 104.2 meq/L
DBIL [7]: 0.7 mg/dL
GLC [7]: 140.4 mg/dL
IP [7]: 7 mg/dL
K [7]: 3.9 meq/L
LDH [7]: 465.4 IU/L
Na [7]: 138.6 meq/L
PL [7]: 171 mg/dL
RALB [7]: 2.9 g/dL
TBIL [7]: 0.9 mg/dL
TC [7]: 109 mg/dL
TG [7]: 27.4 mg/dL
TP [7]: 4.4 g/dL
gamma-GTP [7]: 9.2 IU/L
A/G [8]: 2.8
ALP [8]: 1357 IU/L
ALT [8]: 206 IU/L
AST [8]: 748 IU/L
BUN [8]: 47 mg/dL
CRE [8]: 0.7 mg/dL
Ca [8]: 9.4 mg/dL
Cl [8]: 90 meq/L
DBIL [8]: 4.2 mg/dL
GLC [8]: 61 mg/dL
IP [8]: 9.2 mg/dL
K [8]: 4.5 meq/L
LDH [8]: 983 IU/L
Na [8]: 130 meq/L
PL [8]: 245 mg/dL
RALB [8]: 2.2 g/dL
TBIL [8]: 5.1 mg/dL
TC [8]: 231 mg/dL
TG [8]: 88 mg/dL
TP [8]: 3 g/dL
gamma-GTP [8]: 16 IU/L
